# Results taken from publication PMC6754133 (PLoS ONE, 2019).
# Like-named read-outs stand apart in the source and are kept apart here.
# Columns and labels:
# DAOY cells [1] = assay: Neurosphere formation assay; format: cell-based, human; settings: Homo sapiens, Daoy, 168 h, read-out: Inhibition of NS formation, wells
# Experimental: (§2) The final concentration of test compounds in the wells was 10 μM. Cells were incubated at 37 °C for at least seven days. After incubation percent of wells positive with neural stem cell-derived sphere colonies were calculated for each test condition and compared.
# [2] = test system: Mast/stem cell growth factor receptor Kit (KIT_HUMAN); set-up: method as in earlier work; settings: S2/S3 Table; ref [1] Davis MI et al., Nat Biotechnol. 2011; cited from earlier work
# [3] = test system: Platelet-derived growth factor receptor beta (PGFRB_HUMAN); set-up: method as in earlier work; settings: S2/S3 Table; ref [1] Davis MI et al., Nat Biotechnol. 2011; cited from earlier work
# [4] = target: Abelson tyrosine-protein kinase 2 (ABL2_HUMAN); settings: S2/S3 Table; ref [1] Davis MI et al., Nat Biotechnol. 2011; cited from earlier work
# [5] = test system: Gli-target genes in MB-PDX cells; assay: qRT-PCR of Gli-target genes in MB-PDX cells in vitro; format: cell-based, human; settings: 10 uM in-vitro, 24 hours
# From the text: The results from three independent replicates were used for quantitative analysis and are represented in Fig 7c.
# Y-axes show the relative expression levels of mRNA of target genes with respect to mRNA of GAPDH gene.
# [6] = target: Mitogen-activated protein kinase MLT (MLTK_HUMAN); set-up: method as in earlier work; settings: S3 Table; ref [1] Davis MI et al., Nat Biotechnol. 2011; cited from earlier work
# MB-PDX cells [7] = assay: cells; settings: Homo sapiens, 72 h, read-out: Cell viability assay IC50
# Hh/SMO pathway = assay: Gli-Luciferase functional assay, NIH 3T3 Gli-RE cells stimulated with ShhN; format: cell-based
# Experimental: After 24 hours, when the cells reached confluency, the culture medium was replaced with 80 μL per well of assay medium [Optimem ± 10 mM HEPES ± 1 mM Sodium Pyruvate + 1× MEM NEAA]. […] Then the cells were stimulated by addition of either ShhN-conditioned media or control media (DMEM±10%BCS) at a final concentration of 10%. Following incubation of the plate for at least 28 hours at 37°C, the cells were simultaneously lysed and supplemented with a luciferase substrate by addition of equal volume of Steady-Glo reagent (Promega, E2520) directly to the assay media. Plates were mixed by pipetting, centrifuged to eliminate foam, incubated for 10 minutes, and analyzed using Perkin Elmer Viktor X luminescence plate reader. The results were analyzed using a non-linear regression (Prism 6, GraphPad Software, La Jolla, CA). Data were normalized to the maximal response observed for ShhN-stimulated cells in the same experiment. A sigmoidal-dose response curve was used as a model for data analysis and IC50 value calculation.
# [8] = cited from earlier work
# [9] = target: Carbonic anhydrase 9 (CAH9_HUMAN); settings: S2/S3 Table; ref [2] Parkkila S et al., Bioorg Med Chem Lett. 2009; cited from earlier work
# DAOY cells [10] = assay: cells; settings: Homo sapiens, 72 h, read-out: Cell viability assay IC50
# [11] = test system: Platelet-derived growth factor receptor alpha (PGFRA_HUMAN); set-up: method as in earlier work; settings: S2/S3 Table; ref [1] Davis MI et al., Nat Biotechnol. 2011; cited from earlier work
# [12] = test system: nuclear Gli-1 in DAOY cells; assay: Western blot quantitation of nuclear Gli-1; format: cell-based, human; settings: NS conditions, 24-hour treatment, 5 μM (Fig 6f, S4 Fig)
# Experimental: (§1) Nuclear fractions were prepared from cell pellets according to the method of Schreiber et. al.[81] with minor modifications. […] After 24 hours, cells were lifted from the wells by pipetting, transferred to 1.5 mL Eppendorf tubes, centrifuged at 10,000 x g for 1 minutes at 4°C, and washed once in PBS. Following supernatant removal by vacuum, cells were lysed using a plasma membrane lysis buffer [10 mM HEPES; pH 7.5, 10 mM KCl, 0.1 mM EDTA, 1 mM dithiothreitol (DTT), 0.5% Nonidet P‐40 and 0.5 mM PMSF along with 1× protease inhibitor cocktail (Sigma)] and allowed to swell on ice for 15‐20 min with intermittent mixing. Next, tubes were vortexed to disrupt cell membranes and then centrifuged at 12,000 × g at 4°C for 10 min. […] The pelleted nuclei were washed with the plasma membrane lysis buffer and re-suspended in the nuclear extraction buffer [20 mM HEPES (pH 7.5), 400 mM NaCl, 1 mM EDTA, 1 mM DTT, 1 mM PMSF with 1× protease inhibitor cocktail] and incubated on ice for 30 min. The tubes were centrifuged at 12,000 ×g for 25 min at 4°C and the supernatant (now containing the soluble fraction of the cell nuclei) was collected. Total protein concentrations were determined using the Bio-Rad Protein Assay (Bio-Rad, Hercules, CA). Nuclear extracts containing the total of 40 μg protein were separated on a 10% Tris-SDS PAGE gel (Bio-Rad Mini-PROTEAN® TGX). Gels were transferred on nitrocellulose membranes using Bio-Rad TransBlot system, after which the membranes were blocked in the blocking buffer [5% nonfat dry milk in 1× Tris Buffer Saline + 0.1% Tween 20 (TBST)] for 2 hours at room temperature. Following blocking, the membranes were washed four times with TBST (5 minutes gentle rocking per wash) and incubated overnight with primary antibody Rabbit anti-Gli-1 (Cell signaling, #C68H3); 1:250 dilution in TBST-Milk at 4°C with gentle rocking. Membranes were washed three times with TBST for 5 min each.
# [13] = test system: nuclear Gli-1 in MB-PDX cells; assay: Western blot quantitation of nuclear Gli-1; format: cell-based, human; settings: NS conditions, 24-hour treatment, 5 μM (Fig 6f, S4 Fig)
# Experimental: as §1
# MB-PDX cells [14] = assay: Neurosphere formation assay; format: cell-based, human; settings: Homo sapiens, 168 h, read-out: Inhibition of NS formation, wells
# Experimental: as §2
# [15] = test system: firefly luciferase under control of cAMP response element (CRE); assay: CRE-luciferase counter assay in HEK293s cells; format: cell-based; settings: different concentrations
# Experimental: (a) The drugs were tested at different concentrations in HEK293s cells stably transfected with firefly luciferase under control of cAMP response element (CRE) (pGL4.29[luc2P/CRE/Hygro], Promega). […] Raw, non-normalized luminescence values are presented, to facilitate the assessment of the extent of inhibition. Shown is a single representative experiment out of the multiple experiments performed on different days. (Mean ± SD)
# Gli-1 mRNA = assay: qRT-PCR of Gli-1 mRNA in MB-PDX xenograft tumors; format: in vivo, mouse
# Experimental: NSG mice, 4–6 weeks old, were injected subcutaneously at shoulders and flanks with 1 × 10^6 viable MB-PDX cells in 1:1 HBSS and gelatinous protein mixture Matrigel. […] The tumor size was measured three times a week with a caliper, and tumor volumes were calculated according to the formula (length × width × width × 0.5). At day 42 post-grafting, all mice were euthanized by isoflurane inhalation and cervical dislocation. Tumors were harvested and stored for qRT-PCR analysis.
# Both post-vivo MB-PDX cells and Math1-Cre; ptch1-flox/flox cells were analyzed for Gli-1 mRNA expression. For that, total RNA was extracted from dissociated single cells using QIAGEN RNease Mini Kit and cDNA was prepared using 1μg RNA with iScript cDNA Synthesis Kit (Bio-Rad). SYBR green-based QPCR was performed using murine primers listed as below (GLI1, Forward 5’- [sequence]-3’, Reverse 5’-[sequence]-3’, GAPDH Forward 5'-[sequence] -3', Reverse 5'-[sequence]-3'). mRNA levels were normalized to GAPDH (dCt = Ct gene of interest–Ct GAPDH) and reported as relative mRNA expression (ddCt = 2-^(dCt sample–dCt control)) in fold change.
structure (smiles),measurement,setting,value
Cc1cn(-c2cc(NC(=O)c3ccc(C)c(Nc4nccc(-c5cccnc5)n4)c3)cc(C(F)(F)F)c2)cn1 [Nilotinib],inhibition at 10 µM,DAOY cells [1],> 90%
same,Kd/Ki Value,[2],29 nM
same,Kd/Ki Value,[3],73 nM
same,Kd/Ki Value,[4],26 nM
same,mRNA expression of Gli-target genes,[5],"decreased expression of GLI1, NMYC, HHIP and BCL2 genes"
same,Kd/Ki Value,[6],11 nM
same,IC50,MB-PDX cells [7],5000 nM
same,IC50,"Hh/SMO pathway; Mus musculus, NIH3T3, read-out: Hh/SMO pathway inhibition IC50, NIH3T3 Gli-RE cells, ShhN-conditioned media, n = 3",374 nM
same,Inhibition of ShhN-induced Hh signaling (in words),"Hh/SMO pathway; NIH 3T3 Gli-RE cells, ShhN stimulated",inhibited ShhN-induced Hh signaling in a dose-dependent manner
same,Span of concentration response curve,"Hh/SMO pathway; data as percent of the maximum luminescence in the absence of antagonists, Fig 4",95.05
same,IC50,"Hh/SMO pathway; read-out: Hh/SMO pathway inhibition IC50, NIH3T3 Gli-RE cells, ShhN-conditioned media, n = 3",374 nM
same,"Trough concentration, Cmin",[8]; clinically achievable concentrations,1600 to 2600 nM
same,Average Cmin,[8]; human plasma,2600 nM
same,Cmax,[8]; human plasma,3300 nM
same,Trough concentration (Cmin) in human plasma,[8]; standard dosing of 400 mg twice daily,1650 to 2380 nM
same,Kd/Ki Value,[9],41.9 nM
same,IC50,DAOY cells [10],6000 nM
same,Kd/Ki Value,[11],180 nM
same,"Nuclear Gli-1, mean, % of untreated samples",[12],46%
same,"Nuclear Gli-1, mean, % of untreated samples",[13],41%
same,inhibition at 10 µM,MB-PDX cells [14],> 90%
same,Effect on CRE-driven luciferase activity (independent of SMO),[15],lack of dose-dependent effect
same,Gli-1 mRNA expression in tumors versus vehicle,Gli-1 mRNA,significant reduction in the Gli-1 mRNA expression levels
